The values that follow come from paper PMC9816411, “Host-derived chimeric peptides clear the causative bacteria and augment host innate immunity during infection: A case study of HLB in citrus and fire blight in apple” (Frontiers in Plant Science, 2022).

For orientation: IC50 means the midpoint of a concentration-inhibition curve. A low value points to greater potency in that assay. As a reminder, the MIC is the smallest concentration in the dilution series that meets the test's criterion for growth inhibition.

Ends that are not written are not given here.

One assay relates to E. coli BL21. The note with it: BL21, 24 h.
In the case of KKLPKEILKILGSGYGSLPKEILKILELKK [Gen-1], the concentration for half-maximal inhibition (IC50) was determined as 10.22 ± 0.07 µM and the “IC99 (~MIC)” value is listed as 11.4 ± 0.07 µM.

Consider FWQRRIRRWRR [11P-3], for which 49 ± 2.79 µM corresponded to half-maximal inhibition (IC50) and the “IC99 (~MIC)” value is given as 160.80 ± 3.25 µM.

For the sequence KKLIKKILKIL [11P-1], the IC50 turned out to be 12.9 ± 0.62 µM and the “IC99 (~MIC)” value is recorded as 29.38 ± 0.75 µM.

In a further assay the test system is E. coli strain BL21 (and, in some cases, ATCC25922). The note with it: BL21, 24 h.
IERSRNLDWYKGPTLLDALKNLNEGKRPSDK [I31LB] had a minimum inhibitory concentration (MIC) greater than 20 µM.

KKLPKEILKILGSGYGSLPKEILKILELKK [Gen-1]: the minimum inhibitory concentration (MIC) was 5 to 10 µM.

As to FWQRRIRRWRRGSGYGSPGKKLIKKILKIL [30P-2], the MIC fell in the range of 1.25 to 2.5 µM.

RLPEAFQWQRNIRKVRRPDSPGRRWWRWWR [UGK-9] registered an MIC of 5 to 10 µM.

The sequence RLPKAFQWQRRLRRWRRPYSPGRRWWRWWR [UGK-1] gave an MIC of 5 to 10 µM.

Sequence QPKRLEELLEKLKSLEGSKAHEKLHDWTRK [UGK-49] gave an MIC greater than 20 µM.

Take KRPEELLQKLKSLEGSKAHLQHHDWTSK [UGK-41]: the minimum inhibitory concentration (MIC) was greater than 20 µM.

With FWQRRIRRWRR [11P-3], the MIC was greater than 20 µM.

Sequence RRWWRWWR [8P-1] came in with an MIC greater than 20 µM.

In the case of FQWQRNIRKVR [11P-2], the MIC was greater than 20 µM.

IERSTNLDWYKGPTLL [16P-1] yielded an MIC greater than 20 µM.

In turn, LPKRLEELLQKLKSLEGSKAHEKLHDWTRK [UGK-45] showed a minimum inhibitory concentration (MIC) greater than 20 µM.

The sequence RRWWRWWRGSGYGSPGFWQRRIRRWRR [27P-1] registered an MIC greater than 20 µM.

As for FWQRRIRRWRRGSGYGSPGRRWWRWWR [27P-2], the MIC lay within 5 to 10 µM.

In turn, KKLIKKILKIL [11P-1] returned a minimum inhibitory concentration (MIC) of 10 to 20 µM.

Consider KPRLSEQLQELTRRLLDSPLERRWWEWWRR [UGK-33], for which the minimum inhibitory concentration (MIC) was greater than 20 µM.

For the sequence RLPEAFQWQRRLRRWRRPDSPGRRWWRWWR [UGK-5], the MIC lay in the range of 5 to 10 µM.

On to KPRGSEQLQELTRRLLDSPLERRWWEWMRR [UGK-29], for which the MIC was greater than 20 µM.

Turning to KPRGSEQLQELTRRLLDSPLERRFWQWMRR [UGK-37], the MIC was greater than 20 µM.

For RRWWRWWRGSYGSVYGSPGFWQRRIRRWRR [UGI-7], the MIC was 5 to 10 µM.
